Laboratory results published in US20170275270A1, “BENZYL SUBSTITUTED INDAZOLES” (Bayer Pharma Aktiengesellschaft, priority 2014, published 2017).
Where two headings read alike, the source gives them in different places.

Assays:
[1] = molecular target: T1, catalytic domain of human Bub1 (amino acids 704-1085) (Homo sapiens, UniProt O43683); experiment: Bub1 kinase assay (TR-FRET); type: biochemical
T1 construct: catalytic domain of human Bub1 (amino acids 704-1085); His6 (N); made in house; host or cells: Hi5 insect cells
T1 sequence (O43683 704-1085): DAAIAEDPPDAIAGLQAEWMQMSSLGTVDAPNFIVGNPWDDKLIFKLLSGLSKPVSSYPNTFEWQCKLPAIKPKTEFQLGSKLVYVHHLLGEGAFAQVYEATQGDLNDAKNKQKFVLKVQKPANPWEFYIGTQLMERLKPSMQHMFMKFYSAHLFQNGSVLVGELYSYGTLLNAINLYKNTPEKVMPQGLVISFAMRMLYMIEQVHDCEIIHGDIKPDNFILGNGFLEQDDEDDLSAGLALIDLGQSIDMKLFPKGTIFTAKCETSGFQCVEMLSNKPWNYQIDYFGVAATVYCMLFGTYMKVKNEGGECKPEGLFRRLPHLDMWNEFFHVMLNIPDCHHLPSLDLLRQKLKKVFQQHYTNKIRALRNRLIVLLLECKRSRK
Outline: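 TR-FRET read-out (Eu-anti-mouse IgG/anti-phosphoserine antibody to streptavidin-XL665 on biotinylated peptide) after EDTA stop and 1 h complex formation at 22° C. Kinase reaction ran 60 min at 22° C with 1:3.4 serial dilutions from 2 mM DMSO stocks. IC50 from 4-parameter logistic fit of normalized inhibition.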

Bub1 = Bub1 (Homo sapiens, UniProt O43683); experiment: Formation-Assay: phosphorylation status of histone 2A by inhibition of kinase activity of Bub1; type: cell-based; conditions: Biological Assay 4.1: H2A Formation IC50, co-treatment with Nocodazole 1 μg/ml, 16 h
Chain of Bub1 (O43683 whole entry): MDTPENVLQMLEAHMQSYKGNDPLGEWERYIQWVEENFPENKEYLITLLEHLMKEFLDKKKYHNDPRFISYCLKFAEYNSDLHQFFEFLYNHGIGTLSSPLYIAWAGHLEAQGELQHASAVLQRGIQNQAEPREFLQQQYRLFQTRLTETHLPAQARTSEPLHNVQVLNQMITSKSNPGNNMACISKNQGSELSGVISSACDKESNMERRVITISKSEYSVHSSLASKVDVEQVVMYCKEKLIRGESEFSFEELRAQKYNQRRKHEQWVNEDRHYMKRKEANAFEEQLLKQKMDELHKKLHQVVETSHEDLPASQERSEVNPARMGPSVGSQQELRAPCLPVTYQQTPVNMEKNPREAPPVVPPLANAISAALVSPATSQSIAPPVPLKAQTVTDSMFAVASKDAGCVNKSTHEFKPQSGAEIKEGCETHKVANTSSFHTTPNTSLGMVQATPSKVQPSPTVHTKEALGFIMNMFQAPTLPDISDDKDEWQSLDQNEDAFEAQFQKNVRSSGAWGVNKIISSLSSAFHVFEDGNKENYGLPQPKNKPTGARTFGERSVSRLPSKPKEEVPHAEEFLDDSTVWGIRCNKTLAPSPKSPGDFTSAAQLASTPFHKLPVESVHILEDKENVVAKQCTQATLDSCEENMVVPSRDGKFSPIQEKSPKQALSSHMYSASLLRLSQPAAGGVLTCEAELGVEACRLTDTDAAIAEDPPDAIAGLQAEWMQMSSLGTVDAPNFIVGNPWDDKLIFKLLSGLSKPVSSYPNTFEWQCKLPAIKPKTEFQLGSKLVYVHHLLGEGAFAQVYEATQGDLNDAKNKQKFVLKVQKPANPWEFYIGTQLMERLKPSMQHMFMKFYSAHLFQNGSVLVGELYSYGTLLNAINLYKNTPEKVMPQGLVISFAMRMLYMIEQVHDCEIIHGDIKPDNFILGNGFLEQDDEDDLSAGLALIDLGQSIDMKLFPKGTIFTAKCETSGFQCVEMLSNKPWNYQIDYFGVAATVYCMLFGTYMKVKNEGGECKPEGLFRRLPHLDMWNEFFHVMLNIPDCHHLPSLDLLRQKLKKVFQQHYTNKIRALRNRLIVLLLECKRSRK
Outline: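 Cells co-treated 16 h with Nocodazole (1 μg/ml) and compound (3 nM–10 μM), then fixed and immunostained for phospho-H2A, read by infrared imaging (800 nm) normalised to cell stain (700 nm). Nocodazole-only set as 100%, untreated cells as 0%.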

HeLa = experiment: Proliferation assay (HeLa cell line); conditions: Homo sapiens, 96 h, read-out: Biological Assay 2: Proliferation assay (HeLa cell line) median IC50;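 note: crystal violet staining of cell number, scaled between a plate stained before dosing (0%) and cells left untreated (100%), compounds tested at 0.001-10 µM, IC50 via 4-parameter fit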
[2] = system: HeLa human cervical tumor cells; experiment: Proliferation assay (HeLa+Paclitaxel); conditions: read-out: Biological Assay 3: HeLa + Paclitaxel IC50, 3 nM paclitaxel, crystal violet;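 note: compounds at 0.001-10 µM added 4 h after paclitaxel, 92 h exposure, absorbance normalized to zero-point plate (0%) and untreated cells (100%), IC50 from 4-parameter fit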
[3] = Biological Assay 1: Bub1 kinase assay median IC50, 10 μM ATP
[4] = 10 μM ATP, read-out: Biological Assay 1: Bub1 kinase assay median IC50

Row | SMILES | IC50 [1, 3] [nM] | IC50 (Bub1) [nM] | IC50 (HeLa) [nM] | IC50 [2] [nM] | IC50 [1, 4] [nM]
1 | CCOc1cc(F)c(Cn2nc(-c3ncc4c(n3)N(c3ccncc3)C[C@H]4CNCC(F)(F)F)c3ccccc32)c(F)c1 [Example 2-11-3, N-({2-[1-(4-ethoxy-2,6-difluorobenzyl)-1H-indazol-3-yl]-7-(pyridin-4-yl)-6,7-dihydro-5H-pyrrolo[2,3d]pyr-imidin-5-yl}methyl)-2,2,2-trifluoroethanamine] | 12 | 93 | 3000 | 100 | 
2 | CCOc1cc(F)c(Cn2nc(-c3ncc(CCCOC)c(Nc4ccncc4C(N)=O)n3)c3ccccc32)c(F)c1 [Example 2-10-1, 4-({2-[1-(4-ethoxy-2,6-difluorobenzyl)-1H-indazol-3-yl]-5-(3-methoxypropyl)pyrimidin-4-yl}amino)nicotinamide] | 11 | 3400 | > 10000 | 1300 | 
3 | CCOc1cc(F)c(Cn2nc(-c3ncc(C4CCN(CC(F)(F)F)CC4)c(Nc4ccnc(C)c4)n3)c3ccccc32)c(F)c1 [Example 2-20-5, 2-[1-(4-ethoxy-2,6-difluorobenzyl)-1H-indazol-3-yl]-N-(2-methylpyridin-4-yl)-5-[1-(2,2,2-trifluoroethyl)piperidin-4-yl]pyrimidin-4-amine] | 68 | 0.5 | 3600 | 210 | 
4 | CCOc1cc(F)c(Cn2nc(-c3nc(CN4CCOCC4)cc(Nc4ccncc4C)n3)c3ccccc32)c(F)c1 [Example 2-12-13, 2-[1-(4-ethoxy-2,6-difluorobenzyl)-1H-indazol-3-yl]-N-(3-methylpyridin-4-yl)-6-(morpholin-4-ylmethyl)pyrimidin-4-amine] |  | 6.6 | 3400 | 89 | 6
5 | CCOc1cc(F)c(Cn2nc(-c3nc(Nc4ccncc4OC)cc(C(F)(F)F)n3)c3ccccc32)c(F)c1 [Example 2-12-81, 2-[1-(4-ethoxy-2,6-difluorobenzyl)-1H-indazol-3-yl]-N-(3-methoxypyridin-4-yl)-6-(trifluoromethyl)pyr-imidin-4-amine] |  | 13 | 1600 | 220 | 19
6 | CCOc1cc(F)c(Cn2nc(-c3nc(CN4CCOCC4)cc(Nc4ccnc(S(C)(=O)=O)c4)n3)c3ccccc32)c(F)c1 [Example 2-12-33, 2-[1-(4-ethoxy-2,6-difluorobenzyl)-1H-indazol-3-yl]-N-[2-(methylsulfonyl)pyridin-4-yl]-6-(morpholin-4-ylmethyl)pyrimidin-4-amine] |  | 370 | 8300 | 400 | 520
7 | CCOc1cc(F)c(Cn2nc(-c3nc4c(c(Nc5ccnnc5)n3)CCC4)c3ccccc32)c(F)c1 [Example 2-14-5, 2-[1-(4-ethoxy-2,6-difluorobenzyl)-1H-indazol-3-yl]-N-(pyridazin-4-yl)-6,7-dihydro-5H-cyclopenta[d]pyrimidin-4-amine] |  | 2.7 | 3600 | 540 | 16
8 | CCOc1cc(F)c(Cn2nc(-c3nc4c(c(Nc5ccnc(C)n5)n3)CCC4)c3ccccc32)c(F)c1 [Example 2-12-54, 2-[1-(4-ethoxy-2,6-difluorobenzyl)-1H-indazol-3-yl]-N-(2-methylpyrimidin-4-yl)-6,7-dihydro-5H-cyclopenta[d]pyrimidin-4-amine] | 31 | 14 | 3300 | 180 | 
9 | COCCOc1cc(F)c(Cn2nc(-c3nc4c(c(Nc5ccnc(C)n5)n3)CC(C)(C)C4)c3ccccc32)c(F)c1 [Example 2-12-61, 2-{1-[2,6-difluoro-4-(2-methoxyethoxy)benzyl]-1H-indazol-3-yl}-6,6-dimethyl-N-(2-methylpyrimidin-4-yl)-6,7-dihydro-5H-cyclopenta[d]pyrimidin-4-amine] | 74 | 2400 | > 10000 | 130 | 
10 | CCOc1cc(F)c(Cn2nc(-c3nc(CC)cc(Nc4ccncc4)n3)c3ccccc32)c(F)c1 [Example 2-12-9, 2-[1-(4-ethoxy-2,6-difluorobenzyl)-1H-indazol-3-yl]-6-ethyl-N-(pyridin-4-yl)pyrimidin-4-amine] | 21 | 11 | 3700 | 540 | 

Other lines, results leading:

Row | IC50 [1, 3] [nM] | IC50 (Bub1) [nM] | IC50 (HeLa) [nM] | IC50 [2] [nM] | IC50 [1, 4] [nM] | SMILES
11 | 21 | 1100 | 1200 | 180 |  | CCOc1cc(F)c(Cn2nc(-c3nc(COC)cc(Nc4ccnc(C)c4)n3)c3ccccc32)c(F)c1 [Example 2-12-48, 2-[1-(4-ethoxy-2,6-difluorobenzyl)-1H-indazol-3-yl]-6-(methoxymethyl)-N-(2-methylpyridin-4-yl)pyrimidin-4-amine]
12 |  | 1600 | 1100 | 360 | 8.8 | CCOc1cc(F)c(Cn2nc(-c3ncc(CCN)c(Nc4ccncc4)n3)c3ccccc32)c(F)c1 [Example 2-9-2, 5-(2-aminoethyl)-2-[1-(4-ethoxy-2,6-difluorobenzyl)-1H-indazol-3-yl]-N-(pyridin-4-yl)pyrimidin-4-amine]
13 | 28 | 1800 | 5400 | 630 |  | CCOc1cc(F)c(Cn2nc(-c3ncc(CN4CC(F)(F)C4)c(Nc4ccncc4)n3)c3ccccc32)c(F)c1 [Example 2-2-19, 5-[(3,3-difluoroazetidin-1-yl)methyl]-2-[1-(4-ethoxy-2,6-difluorobenzyl)-1H-indazol-3-yl]-N-(pyridin-4-yl)pyrimidin-4-amine]
14 | 81 | 180 | 9200 | 99 |  | Cc1nccc(Nc2nc(-c3nn(Cc4c(F)cc(OCCO)cc4F)c4ccccc34)nc3c2CC(C)(C)C3)n1 [Example 2-6-22, 2-{4-[(3-{6,6-dimethyl-4-[(2-methylpyrimidin-4-yl)amino]-6,7-dihydro-5H-cyclopenta[d]pyrimidin-2-yl}-1H-indazol-1-yl)methyl]-3,5-difluorophenoxy} ethanol]
15 | 9.3 | 35 | 1200 | 750 |  | CCOc1cc(F)c(Cn2nc(-c3nc(CC)cc(Nc4ccnc(NC(C)=O)c4)n3)c3ccccc32)c(F)c1 [Example 2-12-22, N-[4-({2-[1-(4-ethoxy-2,6-difluorobenzyl)-1H-indazol-3-yl]-6-ethylpyrimidin-4-yl}amino)pyridin-2-yl]acetamide]
16 | 95 | 1200 | 9300 | 340 |  | CCOc1cc(F)c(Cn2nc(-c3ncc(CCCCN4CCCC(F)(F)C4)c(Nc4ccncc4)n3)c3ccccc32)c(F)c1 [Example 2-2-17, 5-[4-(3,3-difluoropiperidin-1-yl)butyl]-2-[1-(4-ethoxy-2,6-difluorobenzyl)-1H-indazol-3-yl]-N-(pyridin-4-yl)pyrimidin-4-amine]
17 |  | 180 | 1800 | 130 | 9.1 | CCOc1cc(F)c(Cn2nc(-c3nc(CN4CCOCC4)cc(Nc4ccnc(NC(=O)C5CC5)c4)n3)c3ccccc32)c(F)c1 [Example 2-19-11, N-[4-({2-[1-(4-ethoxy-2,6-difluorobenzyl)-1H-indazol-3-yl]-6-(morpholin-4-ylmethyl)pyrimidin-4-yl}amino)pyridin-2-yl]cyclopropanecarboxamide]
18 | > 20000 | 31 | > 10000 | 350 |  | CCOc1cc(F)c(Cn2nc(-c3nc(Nc4ccnc(C)n4)cc(C(F)(F)F)n3)c3ccccc32)c(F)c1 [Example 2-12-83, 2-[1-(4-ethoxy-2,6-difluorobenzyl)-1H-indazol-3-yl]-N-(2-methylpyrimidin-4-yl)-6-(trifluoromethyl)pyr-imidin-4-amine]
19 |  | 22 | 4400 | 150 | 66 | CCOc1cc(F)c(Cn2nc(-c3nc4c(c(Nc5ccncc5OC)n3)CC(C)(C)CC4)c3ccccc32)c(F)c1 [Example 2-12-67, 2-[1-(4-ethoxy-2,6-difluorobenzyl)-1H-indazol-3-yl]-N-(3-methoxypyridin-4-yl)-6,6-dimethyl-5,6,7,8-tetrahydroquinazolin-4-amine]
20 |  | 11 | 1800 | 100 | 8.8 | CCOc1cc(F)c(Cn2nc(-c3nc(CN4CCOCC4)cc(Nc4ccnc(NC(C)=O)c4)n3)c3ccccc32)c(F)c1 [Example 2-12-14, N-[4-({2-[1-(4-ethoxy-2,6-difluorobenzyl)-1H-indazol-3-yl]-6-(morpholin-4-ylmethyl)pyrimidin-4-yl}amino)pyridin-2-yl]acetamide]
21 | 70 | 31 | 1100 | 66 |  | CCOc1cc(F)c(Cn2nc(-c3ncc(C4CCN(CC(F)(F)F)CC4)c(Nc4ccncc4OC)n3)c3ccccc32)c(F)c1 [Example 2-20-4, 2-[1-(4-ethoxy-2,6-difluorobenzyl)-1H-indazol-3-yl]-N-(3-methoxypyridin-4-yl)-5-[1-(2,2,2-trifluoroethyl)piperidin-4-yl]pyrimidin-4-amine]
